Converted amounts (≈) assume the structure as drawn.
How the values were obtained:
[1] = tested on: M. tuberculosis DNA gyrase GyrA, A90V; assay type: cell-based, Mycobacterium tuberculosis
[2] = tested on: M. tuberculosis DNA gyrase GyrA, G88C; assay type: cell-based, Mycobacterium tuberculosis
[3] = tested on: M. tuberculosis MmpL3, G253E; assay type: cell-based, Mycobacterium tuberculosis
[4] = tested on: M. tuberculosis MmpL3, G758A/G253E; assay type: cell-based, Mycobacterium tuberculosis
[5] = tested on: M. tuberculosis QcrB D317T; assay type: cell-based, Mycobacterium tuberculosis
[6] = tested on: M. tuberculosis ATCC 3583 (INH resistance); experiment: microbe, parasite or virus in culture; assay type: cell-based; conditions: Mycobacterium tuberculosis, ATCC3583, read-out: MIC90, ATCC 3583 (INH resistance)
[7] = tested on: M. tuberculosis ATCC 35838 (Rif resistance); experiment: microbe, parasite or virus in culture; assay type: cell-based; conditions: Mycobacterium tuberculosis, ATCC35838
[8] = tested on: M. tuberculosis ATCC 35826 (CS resistance); experiment: microbe, parasite or virus in culture; assay type: cell-based; conditions: Mycobacterium tuberculosis, ATCC35826

| SMILES | MIC90, DNA gyrase GyrA, A90V [1] | MIC90, DNA gyrase GyrA, G88C [2] | MIC90, MmpL3, G253E [3] | MIC90, MmpL3, G758A/G253E [4] | MIC90, QcrB D317T [5] | MIC90 [6] | MIC90 [7] | MIC90 [8] |
| --- | --- | --- | --- | --- | --- | --- | --- | --- |
| Cc1nnc(-c2noc3c(F)c4c(cc23)CC2(C(=O)NC(=O)NC2=O)[C@H]2[C@H](C)O[C@H](C)CN42)o1 [Compound 22] | 0.98 µM (≈ 0.461 µg/mL) | 0.98 µM (≈ 0.461 µg/mL) | – | – | – | – | – | – |
| COc1c(N2C[C@@H]3CCCN[C@@H]3C2)c(F)cc2c(=O)c(C(=O)O)cn(C3CC3)c12 [Moxifloxacin, moxifloxacin] | 7.8 µM (≈ 3.13 µg/mL) | 0.49 µM (≈ 0.197 µg/mL) | – | – | – | – | – | – |
| CO[C@H]1/C=C/O[C@@]2(C)Oc3c(C)c(O)c4c(O)c(c(/C=N/N5CCN(C)CC5)c(O)c4c3C2=O)NC(=O)/C(C)=C\C=C\[C@H](C)[C@H](O)[C@@H](C)[C@@H](O)[C@@H](C)[C@H](OC(C)=O)[C@@H]1C [Rif, rifampicin] | 0.0023 µM (≈ 0.00189 µg/mL) | 0.0023 µM (≈ 0.00189 µg/mL) | 0.001 µM (≈ 0.000823 µg/mL) | 0.001 µM (≈ 0.000823 µg/mL) | 0.0046 µM (≈ 0.00379 µg/mL) | 0.006 µM (≈ 0.00494 µg/mL) | > 0.1 µM | 0.001 µM (≈ 0.000823 µg/mL) |
| NNC(=O)c1ccncc1 [Isoniazid, isoniazid] | – | – | – | – | – | > 62.5 µM | 7.8 µM (≈ 1.07 µg/mL) | 3.4 µM (≈ 0.466 µg/mL) |
| CC(C)=CCC/C(C)=C/CNCCNC1C2CC3CC(C2)CC1C3 (stereo not shown) [SQ109] | – | – | 2.0 µM (≈ 0.661 µg/mL) | 2.0 µM (≈ 0.661 µg/mL) | – | – | – | – |
| C[C@H]1COc2c(N3CCN(C)CC3)c(F)cc3c(=O)c(C(=O)O)cn1c23 [Levofloxacin] | 16 µM (≈ 5.78 µg/mL) | 2.0 µM (≈ 0.723 µg/mL) | – | – | – | – | – | – |

Source: publication PMC9017349, “Spiropyrimidinetriones: a Class of DNA Gyrase Inhibitors with Activity against Mycobacterium tuberculosis and without Cross-Resistance to Fluoroquinolones” (Antimicrobial Agents and Chemotherapy, 2022)
